The results in this text go back to patent US9408863B2, “5′-substituted nucleoside analogs and methods of use thereof for the treatment of viral diseases” (Merck Sharp & Dohme Corp., priority 2011, dated 2016).

SMILES strings stand for the structures. Where two headings read alike, the source gives them in different places.

The test system of this assay is HCV replicon (1b) in replicon cells. Description: Cell-based HCV replicon assay (replicon RNA level by real time PCR, Taqman). The following applies: Hepatitis C virus, 72 h, read-out: 1b EC50. On the procedure: To measure cell-based anti-HCV activity of selected compounds of the present invention, replicon cells were seeded at 5000 cells/well in 96-well collagen I-coated Nunc plates in the presence of the test compound. Various concentrations of test compound, typically in 10 serial 2-fold dilutions, were added to the assay mixture, with the starting concentration ranging from 250 μM to 1 μM. The final concentration of dimethylsulfoxide was 0.5%, fetal bovine serum was 5%, in the assay media. Cells were harvested on day 3 by the addition of 1× cell lysis buffer (Ambion cat #8721). The replicon RNA level was measured using real time PCR (Taqman assay). The amplicon was located in 5B. The PCR primers were: 5B.2F, ATGGACAGGCGCCCTGA (SEQ ID. NO. 1); 5B.2R, […] (SEQ ID. NO. 2); the probe sequence was FAM-labeled CACGCCATGCGCTGCGG (SEQ ID. NO. 3). GAPDH RNA was used as endogenous control and was amplified in the same reaction as NS5B (multiplex PCR) using primers and VIC-labeled probe recommended by the manufacturer (PE Applied Biosystem). The real-time RT-PCR reactions were run on ABI PRISM 7900HT Sequence Detection System using the following program: 48° C. for 30 minutes, 95° C. for 10 minutes, 40 cycles of 95° C. for 15 sec, 60° C. for 1 minute. The ACT values (CT5B-CTGAPDH) were plotted against the concentration of test compound and fitted to the sigmoid dose-response model using XLfit4 (MDL). EC50 was defined as the concentration of inhibitor necessary to achieve ΔCT=1 over the projected baseline; EC90 the concentration necessary to achieve ΔCT=3.2 over the baseline. Alternatively, to quantitate the absolute amount of replicon RNA, a standard curve was established by including serially diluted T7 transcripts of replicon RNA in the Taqman assay. All Taqman reagents were from PE Applied Biosystems. Such an assay procedure was described in detail in e.g. Malcolm et al., Antimicrobial Agents and Chemotherapy 50: 1013-1020 (2006).
A general note: Replicon systems follow genome replication, usually without infectious particles.

Where [1] appears, read: HCV 1b replicon cells, harvested on day 3, EC50 = concentration to achieve ΔCT=1 over projected baseline.

A word on the EC50: it is the concentration that produces a half-maximal response. Turning to `CCCCOC(=O)[C@H](C)NP(=O)(Oc1cccc2ccccc12)O[C@H](C)[C@H]1O[C@@H](n2cnc3c(=O)[nH]c(N)nc32)[C@](C)(O)[C@@H]1O` (stereo partly shown) [Compound 10], the EC50 was over 100 µM. The same measure, in the same setting: in the case of `CCCCOC(=O)[C@H](C)NP(=O)(Oc1cccc2ccccc12)O[C@H](C)[C@H]1O[C@@H](n2ccc(N)nc2=O)[C@](C)(O)[C@@H]1O` (stereo partly shown) [Compound 2] it was 10 µM. The same measure, in the same setting: in the case of `CCCCOC(=O)[C@H](C)NP(=O)(Oc1cccc2ccccc12)O[C@H](C)[C@H]1O[C@@H](n2ccc(=O)[nH]c2=O)[C@](C)(O)[C@@H]1O` (stereo partly shown) [Compound 4] it was over 100 µM.

With `CC(O)[C@H]1O[C@@H](n2ccc(N)nc2=O)[C@](C)(F)[C@@H]1O` (stereo partly shown) [Compound 8], the EC50 under setting [1] worked out at 38 µM. On the same count and under the same terms, the same measure for `C[C@@H](O)[C@H]1O[C@@H](n2ccc(N)nc2=O)[C@](C)(O)[C@@H]1O` [Compound 1]: over 100 µM; for `C[C@@H](O)[C@H]1O[C@@H](n2ccc(=O)[nH]c2=O)[C@](C)(O)[C@@H]1O` [Compound 3]: over 100 µM; for `C[C@H](O)[C@H]1O[C@@H](n2ccc(N)nc2=O)[C@](C)(O)[C@@H]1O` [Compound 5]: over 100 µM. Turning to `CCCCOC(=O)[C@H](C)NP(=O)(Oc1cccc2ccccc12)O[C@@H](C)[C@H]1O[C@@H](n2ccc(N)nc2=O)[C@](C)(O)[C@@H]1O` (stereo partly shown) [Compound 6], the EC50 was over 100 µM. For `CC(O)[C@H]1O[C@@H](n2cnc3c(=O)[nH]c(N)nc32)[C@](C)(F)[C@@H]1O` (stereo partly shown) [Compound 13], the EC50 under setting [1] came to 3.5 µM. Regarding `C[C@H](O)[C@H]1O[C@@H](n2cnc3c(=O)[nH]c(N)nc32)[C@](C)(O)[C@@H]1O` [Compound 11], the EC50 under setting [1] was over 100 µM.

For the molecule `CC(O)[C@H]1O[C@@H](n2cnc3c(OCc4ccccc4)nc(NC(=O)c4ccccc4)nc32)[C@](C)(F)[C@@H]1O` (stereo partly shown) [Compound 12], the EC50 under setting [1] amounted to 14 µM. Same read-out and setting: in the case of `CC(O)[C@H]1O[C@@H](n2ccc(NC(=O)c3ccccc3)nc2=O)[C@](C)(F)[C@@H]1O` (stereo partly shown) [Compound 7] it was over 100 µM; in that of `C[C@@H](O)[C@H]1O[C@@H](n2cnc3c(=O)[nH]c(N)nc32)[C@](C)(O)[C@@H]1O` [Compound 9], over 100 µM.
